These are literature values, as cited in PMC12658643, “Effects of Ligand N and O Donor Content on the Structure, Aqueous Stability, and SOD Activity of a Series of Mn^2+ Complexes with Pyridine-Containing Tripodal Ligands” (ACS Omega, 2025).

The test system of series [1] is superoxide ion. To be noted: reported previously; reference not given; read-out: IC50 (SOD activity); cited from earlier work.
For series [2] the following is noted: given for comparison to the complexes; reference not given; cited from earlier work.

A word on the IC50: it is the concentration at which inhibition is half-maximal. In the case of `OC(CCl)CN(Cc1ccccn1)Cc1ccccn1.[Cl][Mn][Cl]` (centres unmarked) [Mn(HPClNOL)Cl2], the IC50 in series [1] is 350 nM.

B1: Escherichia coli MnSOD: manganese superoxide dismutase enzyme of Escherichia coli (protein, UniProt P00448 2-206, looked up)
Superoxide dismutase [Mn]: SYTLPSLPYAYDALEPHFDKQTMEIHHTKHHQTYVNNANAALESLPEFANLPVEELITKLDQLPADKKTVLRNNAGGHANHSLFWKGLKKGTTLQGDLKAAIERDFGSVDNFKAEFEKAAASRFGSGWAWLVLKGDKLAVVSTANQDSPLMGEAISGASGFPIMGLDVWEHAYYLKFQNRRPDYIKEFWNVVNWDEAAARFAAKK
As for B1, the “E 1/2 vs SHE of MnSOD enzymes” value in series [2] is listed as 0.40 V.
